Values joined by “and” are separate entries in the source; they are usually repeats but may differ in a detail not shown here. Equal values may be shown once. Read-outs that look alike come from different tables or passages of the source.
Biological target: T1, DmOctα1B receptor (Drosophila melanogaster, UniProt Q7JQF1)
T1 construct: expressed in transfected cells
T1 sequence (Q7JQF1 1-645): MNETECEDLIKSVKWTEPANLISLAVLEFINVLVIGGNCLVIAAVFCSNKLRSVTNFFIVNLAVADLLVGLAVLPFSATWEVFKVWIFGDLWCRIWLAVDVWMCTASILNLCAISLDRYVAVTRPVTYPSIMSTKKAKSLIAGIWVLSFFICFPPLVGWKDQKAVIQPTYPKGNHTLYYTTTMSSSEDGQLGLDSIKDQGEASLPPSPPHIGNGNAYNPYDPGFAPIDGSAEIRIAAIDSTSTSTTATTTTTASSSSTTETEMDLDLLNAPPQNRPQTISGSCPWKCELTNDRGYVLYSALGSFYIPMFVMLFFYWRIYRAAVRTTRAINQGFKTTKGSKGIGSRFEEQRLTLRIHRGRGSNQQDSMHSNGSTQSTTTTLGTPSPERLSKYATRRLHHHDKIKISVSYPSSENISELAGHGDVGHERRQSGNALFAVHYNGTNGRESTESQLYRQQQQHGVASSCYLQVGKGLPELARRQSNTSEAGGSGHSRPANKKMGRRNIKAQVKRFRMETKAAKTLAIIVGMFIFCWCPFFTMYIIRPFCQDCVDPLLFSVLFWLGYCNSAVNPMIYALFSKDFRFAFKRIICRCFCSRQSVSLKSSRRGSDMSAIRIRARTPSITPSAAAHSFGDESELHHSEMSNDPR
Assay: Ca2+ fluorimetry in plate reader (96 MWP), DmOctα1B-expressing HEK293 cells
Format: cell-based
Procedure: Both the DmOctα1B receptor- and DmOctβ1 receptor-expressing (=flpTM-DmOctβ1) cell lines were initially investigated via Ca^2+ fluorimetric measurements in a plate reader. The cells were seeded in 96 well plates and loaded with Fluo-4, enabling the detection of changes in [Ca^2+]i. The Fluo-4 was excited at 485 nm and the fluorescence emission was recorded at 510 nm. To overcome the cAMP degradation by cell-endogenous phosphodiesterases, the DmOctβ1-expressing cells were treated with 100 µM iso-butylmethylxanthine (IBMX). Prior to the ligand application, the basal fluorescence (F0) was recorded and the concentration–response curves were generated by plotting the changes in fluorescence ((Fmax − F0)/F0 = ΔF/F0) against the ligand concentrations. For a better comparison, the fluorescence intensities were normalized. The maximal change in fluorescence for each of the stimulation series was defined as 100%. The EC50 values were determined from a nonlinear regression plot (four parameters) using GraphPad Prism v5.04 for analysis and display.
In order to omit loading with the fluorescent dye, both the DmOctα1B-expressing cells and flpTM-DmOctβ1 cells were stably transfected with a construct encoding the cytosolic version of GCaMP3.0. As in the previous experiment with Fluo-4, the GCaMP3.0-expressing cell lines were seeded in 96 well plates and incubated with the same series of increasing octopamine concentrations. The GCaMP3.0 was excited at 485 nm and the fluorescence emission was recorded at 510 nm. The basal fluorescence (F0) was recorded before adding the octopamine concentration series. The fluorescence intensities were normalized to the maximal change in fluorescence, defined as 100%. The concentration–response curves were generated with GraphPad Prism v5.04. In Figure 1, the concentration–response curves obtained with Fluo-4 and GCaMP3.0 are depicted for both of the receptors. […]

`NCC(O)c1ccc(O)cc1` (stereo not drawn) [octopamine] was tested, and the EC50 (DmOctα1B cells loaded with Fluo-4, 96 MWP plate reader, read-out: EC50) was ~12 nM and 12 nM, the EC50 (DmOctα1B-GCaMP3.0 cells, 96 MWP plate reader, read-out: EC50) was 14 nM and the EC50 (DmOctα1B-GCaMP3.0 cells, 96 MWP, given as logEC50 (negative), read-out: logEC50 ± SD (converted)) was 15.8 nM.
